Data published in ChEMBL document CHEMBL1833918, “Design and synthesis of potent, orally-active DGAT-1 inhibitors containing a dioxino[2,3-d]pyrimidine core” (Bioorg Med Chem Lett, 2011).
Active and inactive are the calls of the source. The calls are words filed in the database; no cut-off is given here.

Columns and labels:
[1] = Lipophilicity, log D of the compound at pH 7.4; type: physicochemical; settings: buffer
[2] = tested on: Mus musculus; test: Inhibition of triglyceride synthesis in a lipid challenged C57BL6J mouse administered orally; type: functional; settings: po
[3] = Permeability of the compound; type: ADME; settings: not told; read-out: permeability
[4] = tested on: Liver microsomes; test: Stability of the compound in human liver microsomes at 10 uM after 30 mins in presence of glutathione ethyl ester; type: ADME, Microsome; settings: 0.5 h
[5] = Clearance in rat; type: ADME, organism-based; settings: in vivo
[6] = target: hERG (KCNH2) (Homo sapiens, UniProt Q12809); test: Inhibition of human ERG at 30 uM
[7] = tested on: Salmonella typhimurium; test: Genotoxicity in Salmonella Typhimurium by Ames test; type: toxicity, organism-based; settings: salmonella enterica subsp. enterica serovar typhimurium
[8] = tested on: Rattus norvegicus; test: Toxicity in rat assessed as clinical signs up to 500 mg/kg; type: organism-based; parameters: dose 500 mg/kg; settings: in vivo
[9] = tested on: Rattus norvegicus; test: Toxicity in rat assessed as hematological signs up to 500 mg/kg; type: organism-based; parameters: dose 500 mg/kg; settings: in vivo
[10] = tested on: Rattus norvegicus; test: Toxicity in rat assessed as histopathological signs up to 500 mg/kg; type: organism-based; parameters: dose 500 mg/kg; settings: in vivo
[11] = organism: Mus musculus; settings: C57BL6J, 1 to 3 mg/kg
Description: Inhibition of triglyceride synthesis in a lipid challenged C57BL6J mouse at 1 to 3 mg/kg, po coadministered with bolus of lipid

Chain of hERG (KCNH2) (Q12809 whole entry): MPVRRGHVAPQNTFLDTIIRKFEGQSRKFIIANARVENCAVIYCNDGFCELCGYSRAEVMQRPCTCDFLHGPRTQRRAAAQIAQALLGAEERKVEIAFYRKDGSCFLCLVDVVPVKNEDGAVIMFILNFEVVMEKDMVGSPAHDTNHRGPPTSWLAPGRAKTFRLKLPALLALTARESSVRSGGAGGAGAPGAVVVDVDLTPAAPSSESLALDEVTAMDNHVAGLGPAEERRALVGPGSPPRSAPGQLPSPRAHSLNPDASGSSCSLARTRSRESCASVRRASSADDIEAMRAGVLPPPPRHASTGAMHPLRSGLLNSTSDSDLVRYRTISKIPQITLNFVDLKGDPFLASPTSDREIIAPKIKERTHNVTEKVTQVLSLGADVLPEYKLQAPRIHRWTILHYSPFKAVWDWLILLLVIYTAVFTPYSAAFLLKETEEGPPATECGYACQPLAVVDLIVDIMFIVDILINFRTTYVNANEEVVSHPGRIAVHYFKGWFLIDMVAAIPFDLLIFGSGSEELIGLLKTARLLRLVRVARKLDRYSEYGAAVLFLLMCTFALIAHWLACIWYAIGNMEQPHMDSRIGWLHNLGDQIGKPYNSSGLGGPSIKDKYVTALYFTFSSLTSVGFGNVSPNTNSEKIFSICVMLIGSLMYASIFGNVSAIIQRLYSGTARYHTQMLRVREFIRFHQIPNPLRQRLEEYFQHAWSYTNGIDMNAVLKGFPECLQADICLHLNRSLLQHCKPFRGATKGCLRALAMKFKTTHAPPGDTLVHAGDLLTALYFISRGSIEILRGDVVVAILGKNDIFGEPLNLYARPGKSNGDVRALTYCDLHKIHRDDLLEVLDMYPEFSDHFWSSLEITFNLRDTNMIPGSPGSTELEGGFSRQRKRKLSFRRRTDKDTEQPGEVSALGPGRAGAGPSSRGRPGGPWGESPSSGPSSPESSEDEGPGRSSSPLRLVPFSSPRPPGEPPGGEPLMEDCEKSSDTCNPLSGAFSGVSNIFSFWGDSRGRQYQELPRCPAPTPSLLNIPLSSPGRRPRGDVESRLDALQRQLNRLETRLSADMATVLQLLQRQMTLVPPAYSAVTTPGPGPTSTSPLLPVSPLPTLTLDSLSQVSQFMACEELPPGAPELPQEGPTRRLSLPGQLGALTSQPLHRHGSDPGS

Structure (SMILES)	logD [1]	ED50 [2] [mg/kg]	Papp [3] [×10⁻⁶ cm/s]	Stability [4]	clearance [5] [mL/min/kg]	inhibition at 30 µM [6] [%]	Activity [7]	Activity [8]	Activity [9]	Activity [10]	inhibition [11]
Nc1ncnc2c1C(=O)N(c1ccc([C@H]3CC[C@H](CC(=O)O)CC3)cc1)CCO2 [PF-04620110]	-0.15										
CC1(C)Oc2ncnc(N)c2N=C1c1ccc([C@H]2CC[C@H](CC(=O)O)CC2)cc1		0.3									
Nc1ncnc2c1O[C@@H](c1ccc([C@H]3CC[C@H](CC(=O)O)CC3)cc1)CO2	0.74		7.7	Unstable	2	8	Non-toxic	Non-toxic	Non-toxic	Non-toxic	Active
